Data taken from US20230340018A1, “MPRO CYSTEINE PROTEASE INHIBITORS” (ANIXA BIOSCIENCES, INC., priority 2020, published 2023).

What was measured:
[1] = target: SARS-CoV-2 main protease Mpro (Severe acute respiratory syndrome coronavirus 2, UniProt P0DTD1); experiment: FRET-based Mpro enzyme activity assay; format: biochemical; details: recombinant Mpro, 30 min pre-incubation, 0 - 200 µM; read-out: Mpro enzyme inhibition IC50
in vitro = details: human

Row | Structure (SMILES) | IC50 [1] [µM] | CC50 at 72 h (in vitro) [µM]
1 | COc1cccc2[nH]c(C(=O)N[C@@H](CC(C)C)C(=O)N[C@@H](CN3CCNC3=O)C(=O)C(=O)NCC3CC3)cc12 [Compound 10, N-((S)-1-(((S)-4-((Cyclopropylmethyl)Amino)-3,4-Dioxo-1-(2-Oxoimidazolidin-1-yl)Butan-2-yl)Amino)-4-Methyl-1-Oxopentan-2-yl)-4-Methoxy-1H-Indole-2-Carboxamide] | ≤ 2 | > 100
2 | CC(C)C[C@H](NC(=O)c1cc2ccccc2[nH]1)C(=O)N[C@@H](CN1CCNC1=O)C(O)C(=O)NCC1CC1 (stereo partly drawn) [Compound 26, N-((2S)-1-(((2S)-4-((cyclopropylmethyl)amino)-3-hydroxy-4-oxo-1-(2-oxoimidazolidin-1-yl)butan-2-yl)amino)-4-methyl-1-oxopentan-2-yl)-1H-indole-2-carboxamide] | ≤ 2 | > 100
3 | COc1cccc2[nH]c(C(=O)N[C@H](C(=O)N[C@@H](CN3CCNC3=O)C(=O)C(=O)Nc3ccccc3)C3CCCCC3)cc12 [Compound 25, N-((S)-1-cyclohexyl-2-(((S)-3,4-dioxo-1-(2-oxoimidazolidin-1-yl)-4-(phenylamino)butan-2-yl)amino)-2-oxoethyl)-4-methoxy-1H-indole-2-carboxamide] | ≤ 2 | > 100
4 | COc1cccc2[nH]c(C(=O)N[C@@H](CC3CC3)C(=O)N[C@@H](CN3CCNC3=O)C(=O)C(=O)NCC3CC3)cc12 [Compound 12, N-((S)-3-Cyclopropyl-1-(((S)-4-((cyclopropylmethyl)amino)-3,4-dioxo-1-(2-oxoimidazolidin-1-yl)butan-2-yl)amino)-1-oxopropan-2-yl)-4-methoxy-1H-indole-2-carboxamide] | ≤ 2 | > 100
5 | CC(C)C[C@H](NC(=O)c1cc2ccccc2[nH]1)C(=O)N[C@@H](CN1CCNC1=O)C(=O)C(=O)NCC1CC1 [Compound 24, N-((S)-1-(((S)-4-((cyclopropylmethyl)amino)-3,4-dioxo-1-(2-oxoimidazolidin-1-yl)butan-2-yl)amino)-4-methyl-1-oxopentan-2-yl)-1H-indole-2-carboxamide] | 2 to 20 | > 100
6 | CC(C)C[C@H](NC(=O)c1cc2ccccc2[nH]1)C(=O)N[C@@H](Cc1ccc[nH]c1=O)C(=O)C(=O)NCc1ccccc1 [Compound 22, N-((S)-1-(((S)-4-(Benzylamino)-3,4-Dioxo-1-(2-Oxo-1,2-Dihydropyridin-3-yl)Butan-2-yl)Amino)-4-Methyl-1-Oxopentan-2-yl)-1H-Indole-2-Carboxamide] | ≤ 2 | > 100
7 | CC(C)C[C@H](NC(=O)c1nc2ccccc2[nH]1)C(=O)N[C@@H](Cc1ccc[nH]c1=O)C(=O)C(=O)NCc1ccccc1 [Compound 23, N-((S)-1-(((S)-4-(benzylamino)-3,4-dioxo-1-(2-oxo-1,2-dihydropyridin-3-yl)butan-2-yl)amino)-4-methyl-1-oxopentan-2-yl)-1H-benzo[d]imidazole-2-carboxamide] | ≤ 2 | > 100
8 | CC(C)C[C@H](NC(=O)OC(C)(C)C)C(=O)N[C@@H](Cc1ccc[nH]c1=O)C(=O)C(=O)NCc1ccccc1 [Compound 27, tert-butyl ((S)-1-(((S)-4-(benzylamino)-3,4-dioxo-1-(2-oxo-1,2-dihydropyridin-3-yl)butan-2-yl)amino)-4-methyl-1-oxopentan-2-yl)carbamate] | 2 to 20 | > 100
